Laboratory results: US6908733B2, “Diagnosis and treatment of human kidney diseases” (Shiva Biomedical, LLC, priority 1999, dated 2005)
Values joined by “and” are separate entries in the source; they are usually repeats but may differ in a detail not shown here. Equal entries are not always repeated. “Also recorded” adds a separate entry of the source.

Legend:
[1] = system: patients with kidney disease; test: 24-hr urinary protein in patients with kidney disease before and after treatment with an iron chelator; type: in vivo, human
Protocol: Kidney disease was detected in patients by the presence of an abnormal amount of protein in the urine and/or an abnormal renal function. An abnormal amount of protein in urine is an amount of total protein greater than about 0.15 g/24 h measured by an adaptation of pyrogallol red-molydate method described by Fujita, Y., et al., Bunseki Kgaku 32:379-386 (1983), the teachings of which are hereby incorporated by reference in their entirety. Many patients, as part of their routine work up, had received kidney biopsies providing diagnosis of the nature of the kidney disease.
(§1) The diagnosis of the kidney disease was made by performing a kidney biopsy and included patients with membranoproliferative glomerulonephritis, membranous nephropathy, focal segmental sclerosis, IgA nephropathy, and diabetes as described above.
(§2) Patients with kidney disease who had abnormally high urinary protein were treated with the iron chelator deferiprone (1,2-dimethyl-3-hydroxypyrid-4-one) (L1). Deferiprone was synthesized as previously described capsule (Kontoghiorghes A. J., et al., Inorganica Chimica Acta 136:L11-L12 (1987), the teachings of which are hereby incorporated by reference in it entirety) and formulated into capsules containing 500 mg of deferiprone per capsule.
(§3) Urinary protein and serum creatinine was measured as described above before the administration of deferiprone. Patients were treated by oral ingestion of deferiprone in a range between about 30 mg and about 75 mg deferiprone per kilogram body weight per day 3 times a day. Urinary protein and serum creatinine was obtained 2-6 months after the administration of the iron chelator. […] Total urinary protein and serum creatinine measured before (e.g., pretreatment) and after the administration of deferiprone were compared using a paired t-test and p-value of <0.05 was considered significant.

[2] = system: patients with kidney disease; test: Serum creatinine in patients with kidney disease before and after treatment with an iron chelator; type: in vivo, human
Protocol: Creatinine clearance was calculated by the standard formula Cr=Ucr V/PCr where Cr=clearance of creatinine (ml/min); Ucr=urine creatinine (mg/dl), V=volume of urine, and PCr=plasma creatinine (mg/dl).
as §1, §2, §3

[3] = individual patients, before vs after 2-6 months oral deferiprone about 30-75 mg/kg per day
[4] = mean of N=14 patients, p < 0.001
[5] = patients with kidney disease, paired t-test, p<0.05 significant

Cc1c(O)c(=O)ccn1C [deferiprone, 1,2-dimethyl-3-hydroxypyrid-4-one]
24-Hr Urinary Protein Reduction % [1, 3]: 49% and 83% and 38% and 25% and 62% and 99% and 34% and 44% and 80% and 15% and 9% and 2% and 54% and 78% | 24-Hr Urinary Protein Reduction Grams [1, 3]: 1.9 Grams and 1 Grams and 2.5 Grams and 0.7 Grams (2×) and 2.6 Grams and 5.95 Grams and 2 Grams and 2.1 Grams and 0.43 Grams and 0.5 Grams and 0.1 Grams and 1.4 Grams and 2.2 Grams | 24-Hr Urinary Protein After ([1]; individual patients, oral deferiprone about 30-75 mg/kg per day, 3 times a day, measured 2-6 months after administration): 1.5 grams/24 hrs and 0.2 grams/24 hrs and 4 grams/24 hrs and 1.6 grams/24 hrs (2×) and 0.05 grams/24 hrs and 2.8 grams/24 hrs and 2.5 grams/24 hrs and 0.1 grams/24 hrs and 3.8 grams/24 hrs and 4.8 grams/24 hrs and 4.6 grams/24 hrs and 1.2 grams/24 hrs and 0.6 grams/24 hrs | 24-Hr Urinary Protein After, Mean ([1]; mean of N=14 patients, before 3.91, 2-6 months oral deferiprone about 30-75 mg/kg per day, p < 0.001): 2.13 grams/24 hrs | 24-Hr Urinary Protein Reduction %, Mean [1, 4]: 48% | 24-Hr Urinary Protein Reduction Grams, Mean [1, 4]: 1.70 Grams | effect on total urinary protein [1, 5]: significantly decreased; also recorded: decrease | effect on serum creatinine [2, 5]: significantly decreased; also recorded: decrease | Creatinine After ([2]; serum, individual patients, 2-6 months after oral deferiprone about 30-75 mg/kg per day): 0.9 mg/dl (3×) and 1.3 mg/dl and 0.6 mg/dl and 0.5 mg/dl (2×) and 1.4 mg/dl and 0.7 mg/dl and 1.5 mg/dl and 0.8 mg/dl | Creatinine After, Mean ([2]; serum, mean of N=11 patients, before 1.10): 0.90 mg/dL
